Assay results: PubChem BioAssay AID1902 (Broad Institute, 2009)
Activity calls are given as the source filed them.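 Rule for the calls: active = EC50 no more than a set limit of log units above the highest dose; inactive = the rest.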

Molecular target: S. pyogenes SKKanGAS, kanamycin survival, BacTiterGlo, 6 h
Assay: SKKanGAS survival reduction under kanamycin, dose response, streptokinase promoter inhibitor project, SKKanGAS strain, luminescence, dose confirmation (AID 1902);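 note: lower survival reflects blocked streptokinase promoter driving kanamycin resistance gene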

Row | SMILES | EC50
1 | CCOC(=O)c1[nH]c2ccc(F)cc2c1NC(=O)c1ccccc1C(=O)O | > 15 µM (inactive)
2 | FC(F)(F)c1ccc(C2[C@H]3CN(Cc4cccnc4)[C@H](c4ccccc4)C34CC2(c2cccnc2)C4)cc1 (stereo partly drawn) | 5.15 µM
3 | CCn1nc(C)cc1-c1nnc(Sc2ncc([N+](=O)[O-])s2)n1C | 6.51 µM
4 | CC(C)(C)c1cc(NCc2ccccn2)n2ncc(-c3ccccc3)c2n1 | 0.171 µM
5 | O=c1[nH]c(NNC(=S)NC2CCCCC2)nc2c1C1(CCCC1)Cc1ccccc1-2 | 1.35 µM
6 | Cc1ccc(/C=C/C(=O)c2ccc([N+](=O)[O-])o2)cc1 | 5.27 µM
7 | O=C(NNC(=S)NC(=O)c1cccs1)c1ccc(NC(=O)c2ccccc2)cc1 | 0.556 µM
8 | Cc1cc(C)c2nc(SCCc3ccccc3)nc(C)c2c1 | 5.85 µM
9 | Cc1ccc2nc(-c3ccc(NS(=O)(=O)c4ccc(F)c(F)c4)cc3)sc2c1 | 2.69 µM
10 | O=C(Nc1cccc(Cl)c1N1CCCCC1)c1ccc2c(c1)OCCO2 | 10.5 µM
11 | CCCSc1nsc(NC(=O)C(c2ccccc2)c2ccccc2)n1 | 3.03 µM
12 | O=C(CSc1nc2nc(-c3cccs3)cc(C(F)(F)F)c2c(=O)[nH]1)Nc1ccc(F)c(F)c1 | 1.16 µM
13 | COc1ccc(C2CC(=O)c3cnc(N4CCN(Cc5ccccc5)CC4)nc3C2)cc1 (stereo not drawn) | 13.7 µM
14 | O=[N+]([O-])c1ccc(NC(=S)NCCc2ccc(Cl)cc2)cc1 | 1.73 µM
15 | C/C(=N\NC(=O)c1cc(Br)ccc1O)c1ccccn1 | < 0.06 µM
16 | O=C(COc1c(Cl)cccc1Cl)Nc1ccccc1N1CCCC1 | 6.24 µM
17 | CC(C)CCC(CCNCc1ccccn1)c1ccc(Cl)cc1 (stereo not drawn) | 13.2 µM
18 | Cc1ccc(/C=C/C(=O)NC(=S)Nc2ccc(S(=O)(=O)Nc3cc(C)on3)cc2)cc1 | 9.27 µM
19 | Cc1ccc(C(C)C)c(OCc2ccc(C(=O)N/N=C/c3cccc(O)c3O)cc2)c1 | 5.66 µM

Row | SMILES | EC50
20 | CCOc1ccc(-c2csc(/C(C#N)=C\c3ccc(O)c([N+](=O)[O-])c3)n2)cc1 | 1.99 µM
21 | O=C(NNC(=S)Nc1ccc(Cl)c(Cl)c1)c1ccccn1 | 1.66 µM
22 | CC(C)N=c1cc2n(-c3ccc(Cl)cc3)c3ccccc3nc-2cc1Nc1ccc(Cl)cc1 | 1.24 µM
23 | COc1ccccc1-c1nnc(NC(=O)c2ccc(S(=O)(=O)N(C)CC3CCCO3)cc2)o1 (stereo not drawn) | 8.41 µM
24 | Cc1cc(C)c2ccc(NN)nc2c1O | 6.08 µM
25 | O=C(Nc1cc([N+](=O)[O-])ccc1O)c1cccc(NC(=O)c2ccco2)c1 | 2.78 µM
26 | CCc1nc(N)nc(N)c1-c1ccc(Cl)cc1 | 3.99 µM
27 | Cc1cc(/C=C2\SC(=S)N(C)C2=O)c(C)n1-c1ccccc1O | 6.72 µM
28 | COc1ccc(-c2oc(NC(=O)CSc3ncn[nH]3)c(C#N)c2-c2ccc(OC)cc2)cc1 | 3.61 µM
29 | C=CCn1c(COc2ccccc2)nnc1SCC(=O)N/N=C/c1cc(Cl)ccc1O | 3.32 µM
30 | O=C(NC(=S)NNC(=O)c1ccccc1O)c1ccco1 | 3.06 µM
31 | Fc1ccccc1CNc1cc(Cl)cc(Cl)c1 | 12.5 µM
32 | Cc1cc(C(F)F)nn1CC(=O)NC1C(=O)N2C(C(=O)O)=C(CSc3nnnn3C)CSC12 (stereo not drawn) | < 0.06 µM
33 | Cc1cc(C)nc(SCC(=O)NC2=NN=C(c3ccc(Br)cc3)CS2)n1 | 3.07 µM
34 | Cc1ccc2nc(/N=C(\N)NC(=O)NC3CCCCC3)nc(C)c2c1 | 1.15 µM
35 | Oc1nc(Nc2ccc(F)cc2)sc1/C=C1\C=Nc2ccccc21 | 8.88 µM
36 | Cc1cc2c(cc1C)-c1c(ssc1=Nc1ccc(S(N)(=O)=O)cc1)C(C)(C)N2 | 11.7 µM
37 | Cn1c(=O)c(C(=O)NNC(=O)c2ccccc2F)c(O)c2ccccc21 | 4.25 µM
38 | Cc1ccc(NC(=O)CN(C)Cc2nc3c(Br)cc(Br)cc3c(=O)[nH]2)cc1 | 3.79 µM
